Columns and labels:
Type in all cases: biochemical
KRAS G12S = molecular target: T1, KRAS G12S (Homo sapiens, UniProt P01116, G12S); assay: HTRF KRAS-SOS1 interaction assay, KRAS G12S; details: binned ≤2 μM / >2 μM, read-out: Inhibition of KRAS G12S (IC50)
T1 construct: made in house; host or cells: E. coli, e.g. BL21 (DE3)
How it was run: (§1)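 GST-KRAS + anti-GST-Eu; His-hSOS1 + anti-6His-XL665; cpd in DMSO, duplicate, 10–0.01 μM; ~10 min incubation; HTRF ex 337/em 620, 665 nm; IC50 fitted on 665/620 ratio.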

KRAS G12D = molecular target: T2, KRAS G12D (Homo sapiens, UniProt P01116, G12D); assay: HTRF KRAS-SOS1 interaction assay, KRAS G12D; details: binned ≤2 μM / >2 μM, read-out: Inhibition of KRAS G12D (IC50)
T2 construct: made in house; host or cells: E. coli, e.g. BL21 (DE3)
T2 sequence (P01116 1-188 isoform P01116-2 G12D): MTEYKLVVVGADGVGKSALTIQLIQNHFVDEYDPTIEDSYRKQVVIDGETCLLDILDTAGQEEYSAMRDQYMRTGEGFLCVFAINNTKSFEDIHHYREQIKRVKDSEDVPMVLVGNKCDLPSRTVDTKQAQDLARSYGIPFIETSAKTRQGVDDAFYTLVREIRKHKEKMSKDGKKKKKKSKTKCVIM
How it was run: as §1

KRAS WT = molecular target: T3, KRAS WT (Homo sapiens, UniProt P01116); assay: HTRF KRAS-SOS1 interaction assay, wildtype KRAS; details: binned ≤2 μM / >2 μM, read-out: Inhibition of KRAS WT (IC50)
T3 construct: made in house; host or cells: E. coli, e.g. BL21 (DE3)
T3 sequence (P01116 1-188 isoform P01116-2): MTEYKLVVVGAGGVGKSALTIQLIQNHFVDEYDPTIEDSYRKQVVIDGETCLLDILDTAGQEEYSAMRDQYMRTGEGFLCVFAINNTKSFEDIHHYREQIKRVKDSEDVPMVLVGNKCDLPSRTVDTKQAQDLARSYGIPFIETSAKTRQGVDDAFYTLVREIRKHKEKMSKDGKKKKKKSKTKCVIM
How it was run: as §1

KRAS G12V = molecular target: T4, KRAS G12V (Homo sapiens, UniProt P01116, G12V); assay: HTRF KRAS-SOS1 interaction assay, KRAS G12V; details: binned ≤2 μM / >2 μM, read-out: Inhibition of KRAS G12V (IC50)
T4 construct: made in house; host or cells: E. coli, e.g. BL21 (DE3)
T4 sequence (P01116 1-188 isoform P01116-2 G12V): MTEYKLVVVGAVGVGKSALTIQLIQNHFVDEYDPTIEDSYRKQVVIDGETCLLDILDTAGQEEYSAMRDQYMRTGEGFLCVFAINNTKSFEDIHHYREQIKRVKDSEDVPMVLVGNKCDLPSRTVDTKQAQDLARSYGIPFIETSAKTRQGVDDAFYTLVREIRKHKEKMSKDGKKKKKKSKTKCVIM
How it was run: as §1

T1 sequence (P01116 1-188 isoform P01116-2 G12S): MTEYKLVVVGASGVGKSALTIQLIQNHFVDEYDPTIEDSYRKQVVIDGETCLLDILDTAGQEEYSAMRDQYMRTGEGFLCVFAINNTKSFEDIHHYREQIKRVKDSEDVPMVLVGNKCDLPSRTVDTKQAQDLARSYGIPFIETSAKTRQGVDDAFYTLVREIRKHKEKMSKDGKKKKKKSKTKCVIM

Structure (SMILES) | IC50 (KRAS G12S) [nM] | IC50 (KRAS G12D) [nM] | IC50 (KRAS WT) [nM] | IC50 (KRAS G12V) [nM]
CC(Oc1nc2c3c(c(Cl)c(-c4ccc(F)c5sc(N)c(C#N)c45)c(F)c3n1)OCCN2[C@H](C)c1cccnc1N)[C@@H]1CC(F)(F)CN1C (single isomer, unassigned) [Compound 659] | > 2000 | > 2000 | > 2000 | > 2000
Cc1c(F)c(N)cc(-c2nc3c4c(nc(O[C@@H](C)C5CCCN5C)nc4c2F)N([C@H](C)c2cccnc2N)CCO3)c1C(F)(F)F (single isomer, unassigned) [Compound 748] | ≤ 2000 | ≤ 2000 | ≤ 2000 | ≤ 2000
C[C@H](c1cccnc1N)N1CCOc2c(C(F)(F)F)c(-c3ccc(F)c4sc(N)c(C#N)c34)c(F)c3nc(OCC4(CN5CC[C@@H](F)C5)CC4)nc1c23 [Compound 698, 2-amino-4-(4-((R)-1-(2-aminopyridin-3-yl)ethyl)-10-fluoro-2-((1-(((R)-3-fluoropyrrolidin-1-yl)methyl)cyclopropyl)methoxy)-8-(trifluoromethyl)-5,6-dihydro-4H-[1,4]oxazepino[5,6,7-de]quinazolin-9-yl)-7-fluorobenzo[b]thiophene-3-carbonitrile] | ≤ 2000 | ≤ 2000 | ≤ 2000 | ≤ 2000
Cc1cnc(N)c([C@@H](C)N2CCOc3c(C(F)(F)F)c(-c4ccc(F)c5sc(N)c(C#N)c45)c(F)c4nc(OC[C@@]56CCCN5C[C@H](F)C6)nc2c34)n1 (single isomer, unassigned) [Compound 718] | ≤ 2000 | > 2000 | ≤ 2000 | ≤ 2000
N#Cc1c(N)sc2c(F)ccc(-c3c(C(F)(F)F)c4c5c(nc(OC[C@@]67CCCN6C[C@H](F)C7)nc5c3F)N([C@H](CC3CCOC3)c3cccnc3N)CCO4)c12 (single isomer, unassigned) [Compound 692] | ≤ 2000 | ≤ 2000 | ≤ 2000 | ≤ 2000
CO[C@H]1CCN(C)[C@@H]1[C@H](C)Oc1nc2c3c(c(C(F)(F)F)c(-c4ccc(F)c5sc(N)c(C#N)c45)c(F)c3n1)OCCN2[C@H](CCC(F)(F)F)c1cccnc1N [Compound 649, 2-amino-4-(4-((R)-1-(2-aminopyridin-3-yl)-4,4,4-trifluorobutyl)-10-fluoro-2-((S)-1-((2R,3S)-3-methoxy-1-methylpyrrolidin-2-yl)ethoxy)-8-(trifluoromethyl)-5,6-dihydro-4H-[1,4]oxazepino[5,6,7-de]quinazolin-9-yl)-7-fluorobenzo[b]thiophene-3-carbonitrile] | ≤ 2000 | ≤ 2000 | ≤ 2000 | ≤ 2000
N#Cc1c(N)sc2c(F)ccc(-c3c(Cl)c4c5c(nc(OC[C@@]67CCCN6C[C@H](F)C7)nc5c3F)N(C(/C=C\F)c3cccnc3N)CCO4)c12 (single isomer, unassigned) [Compound 755] | ≤ 2000 | ≤ 2000 | ≤ 2000 | ≤ 2000
C=C1CN2CC(=C)CC2(COc2nc3c4c(c(C(F)(F)F)c(-c5ccc(F)c6sc(N)c(C#N)c56)c(F)c4n2)OCCN3[C@H](C)c2cncnc2N)C1 (single isomer, unassigned) [Compound 707] | ≤ 2000 | ≤ 2000 | ≤ 2000 | ≤ 2000
C#CC(F)(F)[C@H](c1cccnc1N)N1CCOc2c(Cl)c(-c3ccc(F)c4sc(N)c(C#N)c34)c(F)c3nc(OC[C@@]45CCCN4C[C@H](F)C5)nc1c23 [Compound 867, 2-amino-4-(4-((S)-1-(2-aminopyridin-3-yl)-2,2-difluorobut-3-yn-1-yl)-8-chloro-10-fluoro-2-(((2R,7aS)-2-fluorotetrahydro-1H-pyrrolizin-7a(5H)-yl)methoxy)-5,6-dihydro-4H-[1,4]oxazepino[5,6,7-de]quinazolin-9-yl)-7-fluorobenzo[b]thiophene-3-carbonitrile] | ≤ 2000 | ≤ 2000 | ≤ 2000 | ≤ 2000
C[C@H](c1cccnc1N)N1CCOc2c(Cl)c(-c3ccc(F)c4sc(N)c(C#N)c34)c(F)c3nc(OC[C@@]45CCCN4C[C@H](F)C5)nc1c23 [Compound 850, 2-amino-4-(4-(1-(2-aminopyridin-3-yl)ethyl)-8-chloro-10-fluoro-2-(((2R,7aS)-2-fluorotetrahydro-1H-pyrrolizin-7a (5H)-yl)methoxy)-5,6-dihydro-4H-[1,4]oxazepino[5,6,7-de]quinazolin-9-yl)-7-fluorobenzo[b]thiophene-3-carbonitrile] | ≤ 2000 | ≤ 2000 | ≤ 2000 | ≤ 2000
N#Cc1c(N)sc2cccc(-c3c(Cl)c4c5c(nc(OC[C@@]67CCCN6C[C@H](F)C7)nc5c3F)N([C@@H](c3cccnc3N)C(F)F)CCO4)c12 (single isomer, unassigned) [Compound 802] | > 2000 | > 2000 | > 2000 | > 2000

Further lines, results first:

IC50 (KRAS G12S) [nM] | IC50 (KRAS G12D) [nM] | IC50 (KRAS WT) [nM] | IC50 (KRAS G12V) [nM] | Structure (SMILES)
≤ 2000 | ≤ 2000 | ≤ 2000 | ≤ 2000 | N#Cc1c(N)sc2c(F)ccc(-c3c(C(F)(F)F)c4c5c(nc(OC[C@@]67CCCN6C[C@H](F)C7)nc5c3F)N([C@H](CCC3COCCO3)c3cccnc3N)CCO4)c12 (mixture of isomers) [Compound 648, 2-amino-4-(4-((1R)-1-(2-aminopyridin-3-yl)-3-(1,4-dioxan-2-yl)propyl)-10-fluoro-2-(((2R,7aS)-2-fluorotetrahydro-1H-pyrrolizin-7a(5H)-yl)methoxy)-8-(trifluoromethyl)-5,6-dihydro-4H-[1,4]oxazepino[5,6,7-de]quinazolin-9-yl)-7-fluorobenzo[b]thiophene-3-carbonitrile]
≤ 2000 | ≤ 2000 | ≤ 2000 | ≤ 2000 | C[C@H](c1cccnc1N)N1CCOc2c(C(F)(F)F)c(-c3cc(F)c(F)c4sc(N)c(C#N)c34)c(F)c3nc(OC[C@@]45CCCN4C[C@H](F)C5)nc1c23 (single isomer, unassigned) [Compound 853]
≤ 2000 | ≤ 2000 | ≤ 2000 | ≤ 2000 | C=CC[C@H](c1cccnc1N)N1C[C@H](C)Oc2nc(-c3cc(N)c(F)c(C)c3C(F)(F)F)c(F)c3nc(OC[C@@]45CCCN4C[C@H](F)C5)nc1c23 (single isomer, unassigned) [Compound 746]
≤ 2000 | ≤ 2000 | ≤ 2000 | ≤ 2000 | C[C@@H]1CN(CC2(COc3nc4c5c(c(C(F)(F)F)c(-c6ccc(F)c7sc(N)c(C#N)c67)c(F)c5n3)OCCN4[C@H](C)c3cccnc3N)CC2)CCO1 (single isomer, unassigned) [Compound 812]
≤ 2000 | ≤ 2000 | ≤ 2000 | ≤ 2000 | N#Cc1c(N)sc2c(F)ccc(-c3c(Cl)c4c5c(nc(OC[C@@]67CCCN6C[C@H](F)C7)nc5c3F)N(C(CCCO)c3cccnc3N)CCO4)c12 (mixture of isomers) [Compound 822, 2-amino-4-(4-(1-(2-aminopyridin-3-yl)-4-hydroxybutyl)-8-chloro-10-fluoro-2-(((2R,7aS)-2-fluorotetrahydro-1H-pyrrolizin-7a(5H)-yl)methoxy)-5,6-dihydro-4H-[1,4]oxazepino[5,6,7-de]quinazolin-9-yl)-7-fluorobenzo[b]thiophene-3-carbonitrile]
≤ 2000 | ≤ 2000 | ≤ 2000 | ≤ 2000 | C[C@H](c1ccc(CN)nc1N)N1CCOc2c(Cl)c(-c3ccc(F)c4sc(N)c(C#N)c34)c(F)c3nc(OC[C@@]45CCCN4C[C@H](F)C5)nc1c23 [Compound 813, 2-amino-4-(4-((R)-1-(2-amino-6-(aminomethyl)pyridin-3-yl)ethyl)-8-chloro-10-fluoro-2-(((2R,7aS)-2-fluorotetrahydro-1H-pyrrolizin-7a(5H)-yl)methoxy)-5,6-dihydro-4H-[1,4]oxazepino[5,6,7-de]quinazolin-9-yl)-7-fluorobenzo[b]thiophene-3-carbonitrile]
≤ 2000 | ≤ 2000 | ≤ 2000 | ≤ 2000 | C#Cc1c(F)ccc2cc(O)cc(-c3nc4c5c(nc(OC[C@@]67CCCN6C[C@H](F)C7)nc5c3F)N([C@H](C)c3cccnc3N)CCO4)c12 (single isomer, unassigned) [Compound 862]
≤ 2000 | > 2000 | > 2000 | ≤ 2000 | N#Cc1c(N)sc2c(F)ccc(-c3c(C(F)(F)F)c4c5c(nc(OC[C@@]67CCCN6C[C@H](F)C7)nc5c3F)N([C@H](CCC3CCC3)c3cccnc3N)CCO4)c12 (single isomer, unassigned) [Compound 631]
≤ 2000 | ≤ 2000 | ≤ 2000 | ≤ 2000 | C#Cc1c(F)ccc2cc(O)cc(-c3nc4c5c(nc(OC[C@@]67CCCN6C[C@H](F)C7)nc5c3F)N(C(C)c3cccnc3N)CCO4)c12 (mixture of isomers) [Compound 742, 4-(10-(1-(2-aminopyridin-3-yl)ethyl)-4-fluoro-2-(((2R,7aS)-2-fluorotetrahydro-1H-pyrrolizin-7a (5H)-yl)methoxy)-9,10-dihydro-8H-7-oxa-1,3,6,10-tetraazacyclohepta[de]naphthalen-5-yl)-5-ethynyl-6-fluoronaphthalen-2-ol]

From patent publication US12668600B2 (Kumquat Biosciences Inc., priority 2023, dated 2026)
